Source: patent publication US20240325544A1, “CATIONIC LIPID FOR COVALENT MODIFICATION OF PEPTIDES” (PharmalN Corporation, priority 2023, published 2024)
Numbered stars: 1 amine (or outer) side, 2 acyl side, 3 side chain; on linkers, the order of the positions; unused ones are H or OH. Square brackets hold non-standard residues; d marks the D form. Peptide text beside a SMILES is read from it. * marks the point of attachment. C18 diacid = O=C(O)CCCCCCCCCCCCCCCCC(=O)*; γGlu = O=C(O)[C@H](CCC(=O)[*:2])N[*:1]; Stearoyl = CCCCCCCCCCCCCCCCCC(=O)*; Palmitoyl = CCCCCCCCCCCCCCCC(=O)*; Dab = NCC[C@H](N)C(=O)O; Dap = NC[C@H](N)C(=O)O; AEEA = NCCOCCOCC(=O)O; GABA = NCCCC(=O)O

Key:
Sprague Dawley rats = assay: Clinically observable adverse effects of cationic alkyl moieties after subcutaneous bolus in rats (Table 1); format: in vivo, rat; conditions: tested at 3.0, 5.0 or 10 μmol/kg; for Ataxia** in n = 3: ataxia is bolus dose limiting toxicity; for Swelling and/or Discoloration in n = 3: dose at which sign was seen
Protocol: (§1) Drug administration and observation: Each rat received a subcutaneous injection of a cationic alkyl modifier (SEQ ID NO: 1-22; listed in Table 1 below) in a buffer of sterile water adjusted to a pH between 4.5-5, with an initial bolus dose of 5.0 μmol/kg and an injection volume of 1.0 mL/kg. The bolus dose level was adjusted based on observations, and animals were monitored closely for lethargy, ataxia, swelling, or discoloration during the first 4 hours post-injection and hourly thereafter. As used herein, “ataxia” means a clinical sign observed as poor muscle control that causes clumsy voluntary movements. It may cause difficulty with mobility, coordination, and eye movements. As used herein, “lethargy” means a clinical sign observed as inability or unwillingness to resume normal activity characterized by exploring and alertness. Lethargic rats are easily observed by displaying little to no activity and/or unwillingness to explore around, half closed eyes, and hunched posture. As used herein, “swelling” means a clinical sign observed as the enlargement or engorgement of body parts with blood or fluid and is associated with visible redness (discoloration). If no swelling occurred, dose level was increased to 10 μmol/kg; if swelling was present, bolus dose level was decreased to 3.0 μmol/kg. A wash-out period of 1 week was allowed between bolus doses, and animals were humanely euthanized through CO2 asphyxiation after final observation.

[1] = as above; format: in vivo, rat; conditions: male, Sprague-Dawley, rat, in vivo, sc, tested at 3.0, 5.0 or 10 μmol/kg, lethargy is considered maximum tolerated bolus dose, read-out: Lethargy* in n = 3
Protocol: as §1

[2] = system: inflammatory cytokines (MCP1, IL-6, TNFα) in BALF; assay: LPS ALI model: inflammatory cytokines in BALF by ELISA (Table 4); format: in vivo, mice; conditions: LPS 0.05 mg/kg IT; SEQ 0.3 mg/kg SC, Sivelestat 150 mg/kg IP; 24 hours
Protocol: Animal care and treatment: Male C57BL/6J mice (6 weeks-old) were purchased from Kyudo (Saga, Japan) and maintained under a 12-hour light/12-hour dark cycle with free access to water and standard mouse diet (MF diet, Oriental Yeast Co., Ltd. Tokyo, Japan). Drug administration: Mice were administered LPS (0.05 mg/kg IT; Sigma-Aldrich) followed by treatment with various test articles, including Sivelestat (150 mg/kg; Nipro, Osaka, Japan), an inhibitor of human neutrophil elastase, injected IP as a positive control, and cationic alkyl modified CNPs (SEQ ID NO: 31, 29, and 30; 0.3 mg/kg (0.1 μmol/kg) SC). The test articles were administered immediately after LPS injection. Additionally, a normal control (NC) group without LPS administration and a Control group receiving only LPS without any test article were included. After 24 hours, the mice were euthanized under isoflurane anesthesia and BALF was harvested. Biochemical analysis: ALI and ARDS are often characterized by increased levels of inflammatory cytokines, including Macrophage Chemoattractant Protein-1 (MCP1), Interleukin-6 (IL-6), and […] (TNFα), in BALF. Decreases in their concentration can indicate the resolution of ALI/ARDS. Concentration of each cytokine (MCP1, IL-6, and TNFα) was measured using an ELISA kit (R&D SYSTEMS, Minneapolis M N). […] Statistical analysis was based on Dunnett's test performed by using GraphPad. (n=5, 8, 8, 8, and 8; NC, Control, PC, SEQ ID NO: 31, SEQ ID NO: 29). *** P<0.001, ** P<0.01, * P<0.05 vs each corresponding Control group.

| Structure (SMILES) | Ataxia** in n = 3 (Sprague Dawley rats) [µmol/kg] | Swelling and/or Discoloration in n = 3 (Sprague Dawley rats) [µmol/kg] | MTD [1] [µmol/kg] | IL-6 in BALF [2] [% Of Control] | MCP1 in BALF [2] [% Of Control] | TNFα in BALF [2] [% Of Control] |
| --- | --- | --- | --- | --- | --- | --- |
| CCCCCCCCCCCCCCCC(=O)NCCOCCOCC(=O)NCCOCCOCC(=O)NCCOCCOCC(=O)N[C@H](CCCCN)C(=O)N[C@@H](CCCCN)C(=O)O [SEQ ID NO: 1, CH3(CH2)14(C═O)-Aeea-Aeea-Aeea-kK] | ≥3 | ≥3 | ≥ 3 |  |  |  |
| CCCCCCCCCCCCCCCCCC(=O)N[C@@H](CCCCN)C(=O)N[C@@H](CCCCN)C(=O)N[C@@H](CCCCN)C(=O)N[C@@H](CCCCN)C(=O)NCC(=O)NCC(=O)NCC(=O)O [SEQ ID NO: 2, CH3(CH2)16(C═O)-KKKKGGG] (Stearoyl-KKKKGGG-OH; C-terminus assumed) |  | ≥3 | ≥ 3 |  |  |  |
| CCCCCCCCCCCCCCCC(=O)NCCOCCOCC(=O)NCCOCCOCC(=O)N[C@@H](CCCCN)C(=O)N[C@@H](CCCCN)C(=O)N[C@@H](CCCCN)C(=O)N[C@@H](CCCCN)C(=O)O [SEQ ID NO: 4, CH3(CH2)14(C═O)-Aeea-Aeea-KKKK] ({Palmitoyl-AEEA-AEEA}-KKKK-OH; C-terminus assumed) | ≥3 | ≥3 | ≥ 3 |  |  |  |
| CCCCCCCCCCCCCCCC(=O)NCCOCCOCC(=O)NCCOCCOCC(=O)N[C@@H](CCCCN)C(=O)N[C@@H](CCCCN)C(=O)O [SEQ ID NO: 5, CH3(CH2)14(C═O)-Aeea-Aeea-KK] | ≥5 |  | ≥ 5 |  |  |  |
| CCCCCCCCCCCCCCCC(=O)NCCOCCOCC(=O)NCCOCCOCC(=O)NCCOCCOCC(=O)N[C@@H](CCN)C(=O)N[C@@H](CCN)C(=O)N[C@@H](CCN)C(=O)N[C@@H](CCN)C(=O)O [SEQ ID NO: 8, CH3(CH2)14(C═O)-Aeea-Aeea-Aeea-Dab-Dab-Dab-Dab] ({Palmitoyl-AEEA-AEEA-AEEA}-[Dab][Dab][Dab][Dab]-OH; C-terminus assumed) | >5 | ≥3 | ≥ 3 |  |  |  |
| CCCCCCCCCCCCCCCC(=O)NCCOCCOCC(=O)NCCOCCOCC(=O)NCCOCCOCC(=O)N[C@@H](CCN)C(=O)N[C@@H](CCN)C(=O)N[C@@H](CCN)C(=O)O [SEQ ID NO: 9, CH3(CH2)14(C═O)-Aeea-Aeea-Aeea-Dab-Dab-Dab] ({Palmitoyl-AEEA-AEEA-AEEA}-[Dab]-[Dab]-[Dab]-OH; C-terminus assumed) | >5 | ≥3 | > 5 |  |  |  |
| CCCCCCCCCCCCCCCC(=O)NCCOCCOCC(=O)NCCOCCOCC(=O)NCCOCCOCC(=O)N[C@@H](CCN)C(=O)N[C@@H](CCN)C(=O)O [SEQ ID NO: 10, CH3(CH2)14(C═O)-Aeea-Aeea-Aeea-Dab-Dab] ({Palmitoyl-AEEA-AEEA-AEEA}-[Dab]-[Dab]-OH; C-terminus assumed) | >10 | ≥10 | > 10 |  |  |  |
| CCCCCCCCCCCCCCCC(=O)NCCCC(=O)NCCCC(=O)N[C@@H](CCN)C(=O)N[C@@H](CCN)C(=O)O [SEQ ID NO: 11, CH3(CH2)14(C═O)-γAbu-γAbu-Dab-Dab] ({Palmitoyl-GABA-GABA}-[Dab]-[Dab]-OH; C-terminus assumed) | >10 | >10 | > 10 |  |  |  |
| CCCCCCCCCCCCCCCC(=O)NCCCC(=O)NCCCC(=O)NCCCC(=O)N[C@@H](CCN)C(=O)N[C@@H](CCN)C(=O)O [SEQ ID NO: 12, CH3(CH2)14(C═O)-γAbu-γAbu-γAbu-Dab-Dab] ({Palmitoyl-GABA-GABA-GABA}-[Dab]-[Dab]-OH; C-terminus assumed) | >10 | >10 | > 10 |  |  |  |
| CCCCCCCCCCCCCCCC(=O)NCCOCCOCC(=O)NCCOCCOCC(=O)N[C@@H](CN)C(=O)N[C@@H](CCN)C(=O)O [SEQ ID NO: 13, CH3(CH2)14(C═O)-Aeea-Aeea-Dap-Dab] ({Palmitoyl-AEEA-AEEA}-[Dap]-[Dab]-OH; C-terminus assumed) | >10 | >10 | > 10 |  |  |  |
| CCCCCCCCCCCCCCCC(=O)N[C@@H](CCC(=O)NCCOCCOCC(=O)NCCOCCOCC(=O)N[C@@H](CCN)C(=O)N[C@@H](CCN)C(=O)O)C(=O)O [SEQ ID NO: 15, CH3(CH2)14(C═O)-γE-Aeea-Aeea-Dab-Dab] ({Palmitoyl-γGlu-AEEA-AEEA}-[Dab]-[Dab]-OH; C-terminus assumed) | >10 | >10 | > 10 |  |  |  |
| CCCCCCCCCCCCCCCC(=O)N[C@@H](CCC(=O)O)C(=O)NCCOCCOCC(=O)NCCOCCOCC(=O)N[C@@H](CCN)C(=O)N[C@@H](CCN)C(=O)O [SEQ ID NO: 16, CH3(CH2)14(C═O)-E-Aeea-Aeea-Dab-Dab] (Palmitoyl-E[AEEA][AEEA][Dab][Dab]-OH; C-terminus assumed) | >10 | >10 | > 10 |  |  |  |
| CCCCCCCCCCCCCCCC(=O)NCCOCCOCC(=O)NCCOCCOCC(=O)NCCOCCOCC(=O)N[C@@H](CCN)C(=O)N[C@@H](CN)C(=O)O [SEQ ID NO: 17, CH3(CH2)14(C═O)-Aeea-Aeea-Aeea-Dab-Dap] ({Palmitoyl-AEEA-AEEA-AEEA}-[Dab]-[Dap]-OH; C-terminus assumed) | >10 | >10 | > 10 |  |  |  |
| NCC[C@H](NC(=O)[C@H](CCN)NC(=O)COCCOCCNC(=O)COCCOCCNC(=O)COCCOCCNC(=O)CCCCCCCCCCCCCCCCC(=O)O)C(=O)O [SEQ ID NO: 18, (HOOC)(CH2)16(C═O)-Aeea-Aeea-Aeea-Dab-Dab] ({C18 diacid-AEEA-AEEA-AEEA}-[Dab]-[Dab]-OH; C-terminus assumed) | >10 | >10 | > 10 |  |  |  |
| CCCCCCCCCCCCCCCC(=O)NCCOCCOCC(=O)NCCOCCOCC(=O)NCCOCCOCC(=O)N[C@@H](CN)C(=O)N[C@@H](CN)C(=O)N[C@@H](CN)C(=O)O [SEQ ID NO: 19, CH3(CH2)14(C═O)-Aeea-Aeea-Aeea-Dap-Dap-Dap] ({Palmitoyl-AEEA-AEEA-AEEA}-[Dap]-[Dap]-[Dap]-OH; C-terminus assumed) | >10 | >10 | > 10 |  |  |  |
| NC[C@H](NC(=O)[C@H](CN)NC(=O)COCCOCCNC(=O)COCCOCCNC(=O)COCCOCCNC(=O)CCCCCCCCCCCCCCCCC(=O)O)C(=O)O [SEQ ID NO: 20, (HOOC)(CH2)16(C═O)-Aeea-Aeea-Aeea-Dap-Dap] ({C18 diacid-AEEA-AEEA-AEEA}-[Dap]-[Dap]-OH; C-terminus assumed) | >10 | >10 | > 10 |  |  |  |
| NCC[C@H](NC(=O)[C@H](CCN)NC(=O)COCCOCCNC(=O)COCCOCCNC(=O)CCCCCCCCCCCCCCCCC(=O)O)C(=O)O [SEQ ID NO: 21, (HOOC)(CH2)16(C═O)-Aeea-Aeea-Dab-Dab] ({C18 diacid-AEEA-AEEA}-[Dab]-[Dab]-OH; C-terminus assumed) | >10 | >10 | > 10 |  |  |  |
| CCCCCCCCCCCCCCCC(=O)NCCOCCOCC(=O)NCCOCCOCC(=O)NCCOCCOCC(=O)N[C@@H](CN)C(=O)N[C@@H](CN)C(=O)N[C@@H](CN)C(=O)N[C@@H](CN)C(=O)O [SEQ ID NO: 22, CH3(CH2)14(C═O)-Aeea-Aeea-Aeea-Dap-Dap-Dap-Dap] ({Palmitoyl-AEEA-AEEA-AEEA}-[Dap][Dap][Dap][Dap]-OH; C-terminus assumed) | >10 | >10 | > 10 |  |  |  |
| CC(C)(C)C(=O)Oc1ccc(S(=O)(=O)Nc2ccccc2C(=O)NCC(=O)O)cc1 [Sivelestat, reference compound] |  |  |  | 69 | 63 | 63 |
